Experimental data: patent publication EP0111112A1, “Granular pesticidal compositions coated with hydrophobic solids with attendant reduced dermal toxicity” (priority 1982, dated 1984)

Tests used:
[1] = Dermal toxicity of pesticidal formulations in male albino rabbits; conditions: rabbit, in vivo, topical or ocular, 24 hours contact, observed 14 days
Description: Five male albino rabbits weighing approximately 2.2 to 3.5 kilograms are selected for each dosage level. The hair is shaved from the entire trunk.
The following materials are used in dermal toxicity tests: • (a.) Saran tubing or "vinylite" film VU 1900, 30.5 cm (12") wide, 0.04 millimeter in thickness, and long enough to fit around the rabbit; (b.) Felt cloth bandages measuring approximately 22.9 x 45.7 cm (9" x 18"); (c.) pieces of 3.8 cm (1.5") adhesive tape approximately 35.6 cm (14") long.
Granular material to be evaluated is placed in the center of the plastic film and is moistened with water. The rabbits' underside is then moistened with water, and the animals are placed, belly down, on. the material. The plastic is then brought up and around the animal and secured at each end with strips of adhesive tape. The felt cloth is then placed under the belly and brought up and around the animal and secured to the body with the remaining two strips of adhesive tape. The "cuff" is removed from the test animals 24 hours after dosing, and any remaining material is brushed away. If the test material cannot be removed, the animal is fitted with a fiber collar which prevents the animal from licking the treatment area. […]
The dermal LD50 values (mg/kg/ body weight) are. calculated for experimental data for the compositions evaluated. […]

[2] = Dermal toxicity of pesticidal formulations in male rats; conditions: rat, in vivo, topical or ocular, male Wistar rats, 24 hours contact, observed 14 days
Experimental: Five male Wistar rats weighing approximately 209 to 277 g are selected for each dosage level. The hair is shaved from the ventral surface of the abdomen.
Granular material for evaluation is mixed with an equal weight of water on an aluminum foil backed with a plastic adhesive strapping. This preparation is then applied to the shaven ventral surface of the animal and fastened in place with adhesive strapping. After a contact time of 24 hours, the strapping is removed and the skin is washed with soap and water. The animals are then observed for 14 days for skin irritation or mortality. After this observation period, the animals are sacrificed and weighed.
Dermal LD50 values (mg/kg body weight) are calculated from experimental data for the compositions evaluated. The LD50 values obtained are averaged. […] Compositions A and B of Table III are as defined in Table I.

What does the source list for `CCOP(=S)(OCC)SCSC(C)(C)C` [O,O-diethyl S-{[(1,1-dimethylethyl)-thio]methyl}phosphorodithioate]?
LD50 at 336 h [1]: 1 to 2 mg/kg; LD50 at 336 h [2]: 1 to 2 mg/kg
